Measured values as given in US5948662A, “Bacillus-derived transglutaminase” (Ajinomoto Co., Inc., priority 1995, dated 1999).
Like-named read-outs stand apart in the source and are kept apart here.

How the values were obtained:
[1] = target: T1, Bacillus subtilis AJ1307-derived TG (TG-1) (Bacillus subtilis, UniProt P40746, D22N); type: biochemical; conditions: for Influence of reagent on TG activity (in words): TG-1, summary of Table 1; for Remaining Activity (relative value): pH 7.5, 37° C.
T1 construct: The thus-obtained cells were used as the starting material, from which TG was purified in the manner mentioned below; endogenous in cells; host or cells: Bacillus subtilis AJ1307 (enzyme solubilized from spores and purified to a single band)
T1 sequence (P40746 whole entry D22N): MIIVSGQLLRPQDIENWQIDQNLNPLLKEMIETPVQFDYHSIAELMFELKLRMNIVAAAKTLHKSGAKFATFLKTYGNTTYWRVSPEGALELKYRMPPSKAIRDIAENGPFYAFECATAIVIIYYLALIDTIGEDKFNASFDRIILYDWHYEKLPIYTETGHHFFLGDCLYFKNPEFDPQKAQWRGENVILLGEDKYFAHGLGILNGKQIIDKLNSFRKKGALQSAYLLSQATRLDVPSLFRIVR
Protocol: The TG activity of the enzyme liquids obtained below was determined according to an enzymatic activity measuring method, which is as follows. […] The thus-counted value was referred to as the TG activity of the enzyme liquid.
Effects, if any, of various reagents on the TG activity were checked. The reagents tested herein were N-ethylmaleimide (NEM), cystamine, phenylmethanesulfonyl fluoride (PMSF), ammonium sulfate, sodium sulfate, EDTA, EGTA, calcium chloride, dithiothreitol (DTT) and 2-mercaptoethanol (2-ME). All were bought from Nacalai Tesque, Inc.
As the enzyme source, the previously-prepared pure TG fraction was used at a concentration of 2 μg/ml. The protein concentration was measured, using a protein assay kit (produced by Bio Rad Co.).
To measure the TG activity, the above-mentioned method of using ^1 4C-labeled putrescine and dimethylcasein as the substrates (at pH of 7.5 and at 37° C.) was employed. As the enzyme source, the previously-prepared pure TG fraction was used at a concentration of 2 μg/ml. The reaction was conducted at 37° C. for 30 minutes.
The TG activity was measured in the following manner. The above-mentioned pure TG fraction was mixed with each one of the reagents that had been adjusted to have a suitable concentration and then left on ice for 30 minutes. The solution of the enzyme source thus reacted with each reagent was adjusted to have a TG concentration of 2 μg/ml and then reacted with the substrates, whereupon the TG activity still remained in the resulting reaction system was measured (at pH of 7.5 and at 37° C.).

[2] = target: T2, Bacillus subtilis AJ12866-derived TG (TG-2) (Bacillus subtilis, UniProt P40746); assay: Influence of reagents on TG activity (TG active fraction after gel permeation, TG-2); conditions: for Remaining Activity (relative value): control = 100
T2 sequence (P40746 1-245): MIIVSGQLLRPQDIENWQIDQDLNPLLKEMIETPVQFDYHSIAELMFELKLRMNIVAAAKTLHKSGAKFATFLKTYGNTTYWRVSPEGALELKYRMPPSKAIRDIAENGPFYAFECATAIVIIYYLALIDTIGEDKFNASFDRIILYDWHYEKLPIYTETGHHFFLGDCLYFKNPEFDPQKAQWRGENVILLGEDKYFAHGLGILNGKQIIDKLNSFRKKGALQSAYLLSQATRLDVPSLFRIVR
Protocol: The method for measuring the enzymatic activity as employed herein was as follows. 50 μl of a reaction system (100 mM Tris-HCl, pH 7.5, 6.3 mg/ml dimethylcasein, 10 nM ^14 C-putrescine, 1.2 μCi) containing 10 μl of the enzyme sample to be measured was kept at 37° C. for 30 minutes thereby to make the substrates reacted. After the reaction, 40 μl of the reaction mixture was adsorbed onto filter paper. In the reaction mixture, the putrescine was reacted with the dimethylcasein due to the catalysis of the TG therein. A bonded reaction product of the putrescine and the dimethylcasein was adsorbed on the filter paper. By adding 10% TCA thereto, the bonded reaction product was fixed on the filter paper. Then, the filter paper was washed three times with a 5% TCA solution, and the ^1 4C radioactivity as fixed to the filter paper was counted with a liquid scintillation counter. The value thus measured corresponds to the relative TG activity of the enzyme sample.
The cells of Bacillus subtilis AJ12866 strain were suspended in a reaction system (0.5 mg/ml lysozyme, 20 μg/ml DNase I, 0.1 M Tris-HCl (pH 7.5), 2 mM DTT, 1 mM EDTA, 2 mM PMSF) and reacted on ice for 2 hours whereby the cells were lysed. The resulting reaction mixture was centrifuged at 20,000×g for 20 minutes, and the precipitate fraction thus obtained was suspended in a washing system (0.1 M Tris-HCl (pH 7.5), 1 mM EDTA, 2 mM PMSF). The resulting suspension was centrifuged, and the precipitate was collected. This operation was repeated for a total of two times.
The thus-obtained precipitate fraction was suspended in a buffer (0.1 M sodium carbonate (pH 10), 1 mM EDTA, 2 mM PMSF) and left at 37° C. for 30 minutes. Meanwhile, a part of the substances that had existed in the precipitate fraction were dissolved in the buffer and the TG activity was transferred to the soluble fraction. […] The pH of the supernatant was adjusted to 6.0 by adding acetic acid thereto. This is referred to as a crude enzyme liquid. The crude enzyme liquid was concentrated by ultrafiltration and then dialyzed against a buffer (50 mM Tris-HCl (pH 7.5), 0.1 M NaCl), whereby the buffer was exchanged. The resulting crude enzyme liquid was subjected to gel permeation, and the TG active fraction thus eluted was collected. The enzymatic properties of the fraction were measured.

[3] = system: Bacillus subtilis-derived TG reported by Ramanujam et al.; conditions: cited from earlier work
[4] = agent concentration 10 (unit not given), control = 100
[5] = agent concentration 5 (unit not given), control = 100

Structure (SMILES)	Influence of reagent on TG activity (in words) [1]	Remaining Activity (relative value) [1, 4]	Influence of reagent on TG activity (in words) ([2]; TG-2, Ca^2+ at 5 mM or more)	Remaining Activity (relative value) ([2]; agent concentration 10 mM)	other results
O[C@H](CS)[C@H](O)CS (racemic) [DTT, dithiothreitol]	not inhibited	119	not inhibited	–	Increase of TG activity in the presence of DTT ([2]; 1 mM of DTT): ≥ 1.5 times; Influence of reagent on the activity of the reported TG (in words) [3]: inhibited
OCCS [2-ME, 2-mercaptoethanol]	not inhibited	111	–	122	–
N.N.O=S(=O)(O)O [(NH4)2 SO4, ammonium sulfate]	inhibited	1	greatly inhibited	3	–
[Ca+2].[Cl-].[Cl-] [CaCl2, calcium chloride]	–	–	not inhibited	–	TG activity maintained in the presence of Ca2+ ([1]; Ca2+ of not less than 5 mM): not less than 50%; Remaining Activity (relative value) [1, 5]: 65; Influence of Ca^2+ on the reported TG (in words) ([3]; Ca^2+ of 5 mM or more): inhibited
O=C(O)CN(CCN(CC(=O)O)CC(=O)O)CC(=O)O [EDTA, ethylenediamine-tetraacetic acid]	not inhibited	107	–	–	Influence of reagent on TG activity (in words) [2]: almost no influence
O=C(O)CN(CCOCCOCCN(CC(=O)O)CC(=O)O)CC(=O)O [EGTA]	not inhibited	98	–	94	Influence of reagent on the activity of the reported TG (in words) [3]: greatly inhibited
CCN1C(=O)C=CC1=O [NEM, N-ethylmaleimide]	inhibited	–	greatly inhibited	–	Remaining Activity (relative value) ([1]; agent concentration 1 (unit not given), TG not reacted with reagent = 100, 30 min on ice with reagent): 17
O=S(=O)([O-])[O-].[Na+].[Na+] [Na2 SO4, sodium sulfate]	not inhibited	87	–	85	–
O=S(=O)(F)Cc1ccccc1 [PMSF, phenylmethanesulfonyl fluoride]	–	–	–	–	Remaining Activity (relative value) [1, 5]: 89; Remaining Activity (relative value) ([2]; agent concentration 5 mM): 95
NCCSSCCN [cystamine]	inhibited	–	greatly inhibited	–	Remaining Activity (relative value) ([1]; agent concentration 2 (unit not given), control = 100): 0
